What was measured:
HeLa cells = test: Cytotoxic activity on HeLa cells, comparison with corresponding 4-nitronaphthalimides; assay type: cell-based, human; details: relative; ID50 of 6-mercaptopurine is assigned the value "1"; 37° C., 72 hours; Lowry protein
Experimental: A series of tests has been carried out comparing the compounds of our invention with the corresponding 4-nitronaphthalimides, with respect to their cytotoxic activity on HeLa cells. The cytotoxic activity test was carried out in accordance with the procedure set forth in "R. I. Heral. Cancer Chemotherapy Report part III, Vol. III, No. 2".
HeLa cells are human cancer cells commonly used for investigating the cytotoxic activity of compounds. These HeLa cells are cultured by the single layer tissue culture technique on glass slides in the laboratories of the Spanish company, Laboratories Made, S.A., of Madrid, Spain, the assignee of this application.
In the tests, there was used an initial culture containing approximately 125000 HeLa cells per milliliter. The initial culture was dispersed with trypsin and was stirred to maintain the cells in suspension therein. Portions of equal volume of the suspension were placed in separate test tubes and to the test tubes were added the various compounds set forth below in various concentrations. There was employed as a standard for comparison, the compound 6-mercaptopurine, a known anti-neoplastic agent whose cytotoxic activity on HeLa cells is well known. As a control, there were also employed test tubes containing the suspension and to which no compound was added.
The contents of the test tubes were cultured at 37° C. for 72 hours. Then the contents of the various test tubes were examined by optical microscope to determine the approximate proportion of cells whose cellular growth was inhibited. Then, the protein content of each tube was determined by the Lowry method, as modified by Oyama and Eagle (Proc. Soc. Exptl. Biol. Med. 91, 305 (1956), and these values are compared with the corresponding values obtained in the control test tubes wherein no compound was added. Comparison of these measured protein values provides a further determination of the inhibition of cell growth caused by the test compounds. With the data obtained from the test tubes containing the same compound in various concentrations, a graph was prepared of concentration of compound versus inhibition of growth of HeLa cells. From this, there can be obtained the so-called ID50 value, that is, the dose of the compound that inhibits HeLa cellular growth by 50%. This is then compared with the results for the comparison compound 6-mercaptopurine. For purposes of comparison, the ID50 value of 6-mercaptopurine is assigned the value "1".

mouse = test: Comparative toxicity study (LD0, LD50) and therapeutic index; details: for LD0 (zero lethal dose or maximal permissible dose): LD0 expressed in mg/mouse; for LD50: LD50 expressed in mg/mouse
Source text: (§1) In the study of the cytostatic action, 6-mercaptopurine was taken as the comparative anti-neoplastic drug.

[1] = as above; details: mouse, in vivo
Source text: as §1

He-La cells and KB cells = test: Cytostatic action on He-La cells and on KB cells, 6-mercaptopurine as comparative drug (Table 1); assay type: cell-based, human; parameters: unit not given beside the values; details: calculated using 6-mercaptopurine as the comparative drug (6-mercaptopurine = 1)
Source text: as §1

Swiss I.C.R. albino mice = test: Raticide/muricide action, drugs mixed with mice food for 7 days, Warfarin as comparative substance; assay type: in vivo, mouse (Swiss I.C.R. albino); details: for Raticide and muricide action compared with Warfarin / Toxicity compared with Warfarin: in words; for Dose to be taken in seven days: mixed with usual mice food at 1%, 0.5% and 0.1%, 7 days, oral
Experimental: The four drugs were given to Swiss I.C.R. albino mice during 7 days. The administration was done by mixing the drugs with the usual mice food at concentrations of 1%, 0.5% and 0.1%. Two cribs were put in each cage: one with the usual mice food and the other containing food to which our drugs were added at the above mentioned concentrations. The food of both cribs was weighed daily in order to see if the animals could distinguish it. Warfarin (3-(α-acetonylbenzyl)-4-hydroxycoumarin) was used as the comparative substance.

SMILES: O=C1c2cccc3c([N+](=O)[O-])ccc(c23)C(=O)N1CCN1CCCCC1 [N-[2-(N-piperidino)ethyl]-4-nitronaphthalimide, reference compound]
- ID50 (dose that inhibits HeLa cellular growth by 50%) (HeLa cells): 5

SMILES: O=C1c2cccc3cc([N+](=O)[O-])cc(c23)C(=O)N1CCN1CCCC1 [Compound 4, N-[2-(N-pyrrolidino)ethyl]-3-nitronaphthalimide]
- LD0 (zero lethal dose or maximal permissible dose) (mouse): 0.2 mg/mouse
- LD50 (mouse): 0.38 mg/mouse
- selectivity ratio [1]: 1.26
- ID50 (50% inhibitory dose) (He-La cells and KB cells): 0.3
- Raticide and muricide action compared with Warfarin (Swiss I.C.R. albino mice): great superiority over Warfarin as raticide and muricide agents
- Toxicity compared with Warfarin (Swiss I.C.R. albino mice): more toxic
- Dose to be taken in seven days (Swiss I.C.R. albino mice): 6.6 mg/kg
- ID50 (dose that inhibits HeLa cellular growth by 50%) (HeLa cells): 0.30

SMILES: Sc1ncnc2nc[nH]c12 [6-mercaptopurine, reference compound]
- LD0 (zero lethal dose or maximal permissible dose) (mouse): 1 mg/mouse
- LD50 (mouse): 5 mg/mouse
- selectivity ratio [1]: 5

SMILES: CN(C)CCN1C(=O)c2cccc3cc([N+](=O)[O-])cc(c23)C1=O [Compound 3, N-(2-dimethylaminoethyl)-3-nitronaphthalimide]
- LD0 (zero lethal dose or maximal permissible dose) (mouse): 0.2 mg/mouse
- LD50 (mouse): 0.30 mg/mouse
- selectivity ratio [1]: 2
- ID50 (50% inhibitory dose) (He-La cells and KB cells): 0.15
- Raticide and muricide action compared with Warfarin (Swiss I.C.R. albino mice): great superiority over Warfarin as raticide and muricide agents
- Toxicity compared with Warfarin (Swiss I.C.R. albino mice): more toxic
- Dose to be taken in seven days (Swiss I.C.R. albino mice): 6.6 mg/kg
- ID50 (dose that inhibits HeLa cellular growth by 50%) (HeLa cells): 0.15

SMILES: CN(C)CCN1C(=O)c2cccc3c([N+](=O)[O-])ccc(c23)C1=O [N-[2-dimethylaminoethyl]-4-nitronaphthalimide, reference compound]
- ID50 (dose that inhibits HeLa cellular growth by 50%) (HeLa cells): 3

SMILES: CCN(CC)CCN1C(=O)c2cccc3cc([N+](=O)[O-])cc(c23)C1=O [Compound 2, N-(2-diethylaminoethyl)-3-nitronaphthalimide]
- LD0 (zero lethal dose or maximal permissible dose) (mouse): 0.15 mg/mouse
- LD50 (mouse): 2 mg/mouse
- ID50 (50% inhibitory dose) (He-La cells and KB cells): 3
- Raticide and muricide action compared with Warfarin (Swiss I.C.R. albino mice): great superiority over Warfarin as raticide and muricide agents
- Toxicity compared with Warfarin (Swiss I.C.R. albino mice): more toxic
- Dose to be taken in seven days (Swiss I.C.R. albino mice): 13 mg/kg
- ID50 (dose that inhibits HeLa cellular growth by 50%) (HeLa cells): 3

SMILES: CC(=O)CC(c1ccccc1)c1c(O)c2ccccc2oc1=O (stereo not drawn) [Warfarin, 3-(α-acetonylbenzyl)-4-hydroxycoumarin, reference compound]
- Dose to be taken in seven days (Swiss I.C.R. albino mice): 35 mg/kg

SMILES: O=C1c2cccc3cc([N+](=O)[O-])cc(c23)C(=O)N1CCN1CCCCC1 [Compound 1, N-[2-(N-piperidino)ethyl]-3-nitronaphthalimide]
- LD0 (zero lethal dose or maximal permissible dose) (mouse): 0.5 mg/mouse
- LD50 (mouse): 2 mg/mouse
- ID50 (50% inhibitory dose) (He-La cells and KB cells): 2
- Dose to be taken in seven days (Swiss I.C.R. albino mice): 80 mg/kg
- ID50 (dose that inhibits HeLa cellular growth by 50%) (HeLa cells): 2

SMILES: O=C1c2cccc3c([N+](=O)[O-])ccc(c23)C(=O)N1CCN1CCCC1 [N-[2-(N-pyrrolidino)ethyl]-4-nitronaphthalimide, reference compound]
- ID50 (dose that inhibits HeLa cellular growth by 50%) (HeLa cells): 4

SMILES: CCN(CC)CCN1C(=O)c2cccc3c([N+](=O)[O-])ccc(c23)C1=O [N-[2-diethylaminoethyl]-4-nitronaphthalimide, reference compound]
- ID50 (dose that inhibits HeLa cellular growth by 50%) (HeLa cells): 5.5
